In paper PMC10343887, “Structural Optimization of BIPPO Analogs as Potent Antimalarials” (Molecules, 2023):

Columns and labels:
[1] = Metabolic stability in human liver microsomes (S9 fraction); format: in vitro ADME; settings: one hour incubation, Phase I and Phase II metabolism
Description: (§1) Thus, compounds 23, 28–30, 47a and 47b with high potencies (pIC50 > 6) were evaluated for their in vitro metabolic stability in human and mouse liver microsomes (S9 fraction) with diclofenac as a reference compound. As summarized in Figure 2, substituents in the R^4 position affect metabolic stability. […] Their stability against mouse liver microsomes is lower, especially for their Phase I metabolism; only 38% and 26% of the parent compounds are left for 23 and 29 after one hour of incubation. […] For the adamantanyl analogs 30, 47a and 47b, metabolic stability differs drastically, with Phase I identified as the main metabolic pathway. Analog 47b was metabolized for >95% within 30 min with mouse liver microsomes, while 90% of 47a (tert-butyl analog) was left after one hour of incubation.
(§2) The assay for metabolic stability in human and mouse liver microsomal fractions (S9) was performed as described.

[2] = Metabolic stability in mouse liver microsomes (S9 fraction); format: in vitro ADME; settings: for metabolic stability relative to diclofenac: mouse Phase I assay; for metabolic stability in mouse liver microsomes (in words) / parent compound left: mouse liver microsomes; for parent compound left: one hour of incubation
Description: as §1, §2

[3] = Non-specific toxicity control on human MRC-5 cells; format: cell-based; settings: human MRC-5 cells; average values n ≥ 2, s.d. < 0.3; read-out: MRC-5 pIC50 (converted)
P. falciparum = test: Antimalarial screening against asexual blood stage P. falciparum; format: cell-based, Plasmodium falciparum
Description: Previously, Howard et al. reported (sub)micromolar activity against P. falciparum for a series of BIPPO analogs with benzyl substituents. To further understand the structure–activity relationship (SAR) of this interesting scaffold, close analogs of 3 with substituents at R^1–R^4 positions were tested against P. falciparum and human MRC-5 cells as the control for non-specific toxicity (Table 1).
The assay for antimalarial activity was carried out as described in detail in Pereira et al..

human MRC-5 cells = test: Non-specific toxicity control on human MRC-5 cells; format: cell-based
[4] = potency against asexual blood stage of P. falciparum, average values n ≥ 2, s.d. < 0.3

parent compound remaining [1] | metabolic stability relative to diclofenac [2] | metabolic stability in mouse liver microsomes (in words) [2] | parent compound left ([2]; Phase I metabolism) [%] | parent compound left ([2]; phase not given) [%] | IC50 (P. falciparum; Plasmodium falciparum, potency against asexual blood stage of P. falciparum, average values n ≥ 2, s.d. < 0.3, read-out: P. fal pIC50 (converted)) [µM] | Molecule | IC50 [3] [µM] | fold potency increase compared with 3 (P. falciparum; P. falciparum, relative to 3) | toxicity for human MCR-5 cells (in words) (human MRC-5 cells) | MRC-5 pIC50 (human MRC-5 cells; human MRC-5 cells, average values n ≥ 2, s.d. < 0.3) | fold decreased antimalarial potency compared to 3 (P. falciparum; P. falciparum, relative to 3) | P. fal pIC50 (P. falciparum; [4])
more than 50% | metabolized faster than diclofenac | favorable metabolic stability | 38 | – | – | CC(C)c1n[nH]c2c(=O)[nH]c(C3CCCCC3)nc12 [compound 23, 5-Cyclohexyl-3-isopropyl-1,6-dihydro-7H-pyrazolo[4,3-d]pyrimidin-7-one] | > 63.1 | five | – | – | – | –
more than 50% | metabolized faster than diclofenac | favorable metabolic stability | 26 | – | – | CC(C)c1n[nH]c2c(=O)[nH]c(C34CCC(CC3)CC4)nc12 [compound 29, 5-(Bicyclo[2.2.2]octan-1-yl)-3-isopropyl-1,6-dihydro-7H-pyrazolo[4,3-d]pyrimidin-7-one] | > 63.1 | – | – | – | – | –
– | metabolized faster than diclofenac | – | – | – | – | CC(C)c1n[nH]c2c(=O)[nH]c(C34CC5CC(CC(C5)C3)C4)nc12 [compound 30, 5-(Adamantan-1-yl)-3-isopropyl-1,6-dihydro-7H-pyrazolo[4,3-d]pyrimidin-7-one] | > 63.1 | eight | without showing noticeable toxicity | – | – | –
– | – | – | – | – | – | 5-(Benzyloxy)-3-isopropyl-1,6-dihydro-7H-pyrazolo[4,3-d]pyrimidin-7-one [compound 5] | – | – | – | < 4.2 | 5- to 25 fold | 5.2
more than 50% | – | favorable metabolic stability | – | 68 | < 1 | CC(C)c1n[nH]c2c(=O)[nH]c(C3CCC(F)(F)CC3)nc12 [compound 28, 5-(4,4-Difluorocyclohexyl)-3-isopropyl-1,6-dihydro-7H-pyrazolo[4,3-d]pyrimidin-7-one] | > 63.1 | – | – | – | – | 6.0
